Results published in patent US12441732B2, “Potassium salt crystal form B of phosphodiesterase type 5 inhibitor, and preparation method and use therefor” (Guangzhou Huazhen Pharmaceutical Co., Ltd, priority 2019, dated 2025).
Read-outs that look alike come from different tables or passages of the source.

Tests used:
[1] = Dynamic solubility test in water, SGF, FaSSIF, FeSSIF at 37° C.; format: physicochemical; details: for solubility at 1 h / solubility at 4 h / solubility at 24 h: read-out: solubility (S)
[2] = Solid-state stability test (one week, open); format: physicochemical; details: for HPLC purity: Purity after placement / Purity after placement/Starting purity / Crystal form change: open, one week; for Crystal form change: XRPD
Experimental: The solid-state stability of the potassium salt crystal form B prepared in Embodiment 1 was tested, in which 5.22 mg of potassium salt crystal form B samples were weighed and left open at 25° C./60% RH, and 5.19 mg of potassium salt crystal form B samples were weighed and left open at 40° C./75% RH. After one week, all samples were subjected to XRPD characterization (see XRPD parameter settings in Table 1) and HPLC purity test (Agilent 1100) to detect changes in crystal form and purity, wherein HPLC purity test parameters were shown in Table 6. Meanwhile, 4.59 mg of a compound WYQ sample was weighed and left open at 25° C./60% RH, and 5.11 mg of the compound WYQ sample was weighed and left open at 40° C./75% RH. The solid-state stability of these samples were performed under the same conditions for comparative reference.

PAH rats = test: Monocrotaline-induced pulmonary arterial hypertension (PAH) rats: RVSP, RVMI, pulmonary arterioles; format: in vivo, SD rats; details: for RVMI, RV/(LV+S) / RVSP: 3 weeks after MCT
Excerpt: SD rats were randomly divided into 8 groups, 15 rats/group: a normal control group (Vehicle); a PAH model group (MCT); a PAH+potassium salt crystal form B of WYQ mini-dose group (hereafter referring to as a mini-dose group); a PAH+potassium salt crystal form B of WYQ low-dose group (hereafter referring to as a low-dose group); a PAH+potassium salt crystal form B of WYQ medium-dose group (hereafter referring to as a medium-dose group); a PAH+potassium salt crystal form B of WYQ high-dose group (hereafter referring to as a high-dose group); a PAH+Sildenafil control group (hereafter referring to as a Sildenafil group); a PAH+Tadalafil control group (hereafter referring to as a Tadalafil group).
MCT was fully dissolved with 1M dilute HCl, diluted with double-distilled water, and adjusted to pH=7.2 with 3M NaOH, thereby preparing a MCT solution with a final concentration of 20 mg/ml.
The normal control group was injected subperitoneally with normal saline (50 mg/kg), and the rest of the groups were injected subperitoneally with MCT (50 mg/kg) at one time.
Mini-dose group: the potassium salt crystal form B of WYQ was prepared into a 0.4 mg/ml medicinal solution (ready to use) with normal saline, and administered by gavage at the dose of 2 mg·kg^−1d^−1;
Low-dose group: the potassium salt crystal form B of WYQ was prepared into a 1 mg/ml medicinal solution (ready to use) with normal saline, and administered by gavage at the dose of 5 mg·kg^−1d^−1;
Medium-dose group: the potassium salt crystal form B of WYQ was prepared into a 2 mg/ml medicinal solution (ready to use) with normal saline, and administered by gavage at the dose of 10 mg·kg^−1d^−1;
High-dose group: the potassium salt crystal form B of WYQ was prepared into a 4 mg/ml medicinal solution (ready to use) with normal saline, and administered by gavage at the dose of 20 mg·kg^−1d^−1;
Sildenafil group: Sildenafil was prepared into a 5 mg/ml medicinal solution (ready to use) with 0.5% sodium carboxymethyl cellulose, and administered by gavage at the dose of 25 mg·kg^−1d^−1;
Tadalafil group: Tadalafil was prepared into a 2 mg/ml medicinal solution (ready to use) with 0.5% sodium carboxymethyl cellulose, and administered by gavage at the dose of 10 mg·kg^−1d^−1.
The day of injection was the starting date of the experiment, and the administration was started after 7 days of modeling, once a day for 14 consecutive days.
After 3 weeks from the starting date of the experiment, RVSP data were collected on RM-6240E polygraph for each group of rats.
After 3 weeks from the starting date of the experiment, the animals were anesthetized, hemodynamically tested (RM-6240E polygraph), and sacrificed after manometry. The cardiopulmonary tissues were immediately dissected, and the right and left atria and great vessels were cut off along the atrioventricular junction with ophthalmic scissors to separate the right ventricle (RV) and left ventricular wall plus septum (LV+S), which was absorbed water with filter paper and weighed respectively, and RV/(LV+S), i.e., RVMI was calculated.
After 3 weeks from the starting date of the experiment, rats were heparinized with heparin (50 IU/100 g, intraperitoneal injection) for 5 min. The animals were anesthetized by injection of 20% urethane solution (0.5 ml/100 g), and the blood pressure indexes were detected and recorded.
The heart was dissected, the right ventricular wall was separated, and the left ventricle and the septum were separated, which were absorbed water with filter paper and weighed respectively to calculate the right ventricular hypertrophy index.
The lungs were dissected, wherein the right lung was ligated, and the left lung lobe was perfused with a fixative (4% paraformaldehyde) and then fixed in the fixative, dehydrated by ethanol gradient, allowed to become transparent by using xylene, immersed in wax, embedded in paraffin, sectioned (4 μm), stained with hematoxylin-eosin (HE), sealed with neutral gum and then observed under a microscope. […]

[3] = both test conditions (25° C./60% RH, 40° C./75% RH)
[4] = high-dose 20 mg·kg^−1d^−1 gavage once a day for 14 days
[5] = low-, medium- and high-dose groups (5, 10, 20 mg·kg^−1d^−1)
[6] = low-dose 5 mg·kg^−1d^−1 gavage once a day for 14 days
[7] = medium-dose 10 mg·kg^−1d^−1 gavage once a day for 14 days
[8] = mini-dose 2 mg·kg^−1d^−1 gavage once a day for 14 days

SMILES: CCCCOC(=O)[N-]S(=O)(=O)c1cccc(-c2nc3c(CCC)nn(C)c3c(=O)[nH]2)c1.[K+] [potassium salt crystal form B]
- crystal form change after XRPD assay (FC) ([1]; FaSSIF, 1 h): yes
- pH ([1]; FaSSIF, 1 h): 6.8
- crystal form change after XRPD assay (FC) ([1]; FaSSIF, 4 h): yes
- pH ([1]; FaSSIF, 4 h): 6.8
- crystal form change after XRPD assay (FC) ([1]; FaSSIF, 24 h): yes
- pH ([1]; FaSSIF, 24 h): 6.8
- crystal form change after XRPD assay (FC) ([1]; FeSSIF, 1 h): yes
- pH ([1]; FeSSIF, 1 h): 5.5
- crystal form change after XRPD assay (FC) ([1]; FeSSIF, 4 h): yes
- pH ([1]; FeSSIF, 4 h): 5.5
- crystal form change after XRPD assay (FC) ([1]; FeSSIF, 24 h): yes
- pH ([1]; FeSSIF, 24 h): 5.5
- crystal form change after XRPD assay (FC) ([1]; SGF, 1 h): yes
- pH ([1]; SGF, 1 h): 7.5
- crystal form change after XRPD assay (FC) ([1]; SGF, 4 h): yes
- pH ([1]; SGF, 4 h): 7.3
- crystal form change after XRPD assay (FC) ([1]; SGF, 24 h): yes
- pH ([1]; SGF, 24 h): 7.7
- solubility at 1 h ([1]; fasted-state simulated intestinal fluid (FaSSIF), thermodynamic from solid, FaSSIF, 1 h): 10700 µg/mL
- solubility at 4 h ([1]; fasted-state simulated intestinal fluid (FaSSIF), thermodynamic from solid, FaSSIF, 4 h): 9500 µg/mL
- solubility at 24 h ([1]; fasted-state simulated intestinal fluid (FaSSIF), thermodynamic from solid, FaSSIF, 24 h): 9800 µg/mL
- solubility at 1 h ([1]; fed-state simulated intestinal fluid (FeSSIF), thermodynamic from solid, FeSSIF, 1 h): 400 µg/mL
- solubility at 4 h ([1]; fed-state simulated intestinal fluid (FeSSIF), thermodynamic from solid, FeSSIF, 4 h): 430 µg/mL
- solubility at 24 h ([1]; fed-state simulated intestinal fluid (FeSSIF), thermodynamic from solid, FeSSIF, 24 h): 430 µg/mL
- solubility at 1 h ([1]; simulated gastric fluid (SGF), simulated gastric fluid, thermodynamic from solid, SGF, 1 h): 6800 µg/mL
- solubility at 4 h ([1]; simulated gastric fluid (SGF), simulated gastric fluid, thermodynamic from solid, SGF, 4 h): 7000 µg/mL
- solubility at 24 h ([1]; simulated gastric fluid (SGF), simulated gastric fluid, thermodynamic from solid, SGF, 24 h): 7700 µg/mL
- solubility at 1 h ([1]; thermodynamic from solid, water, 1 h): 12500 µg/mL
- solubility at 4 h ([1]; thermodynamic from solid, water, 4 h): 13100 µg/mL
- solubility at 24 h ([1]; thermodynamic from solid, water, 24 h): 12900 µg/mL
- solubility ([1]; thermodynamic from solid, water, read-out: solubility in water (the highest)): ≤ 12.9 mg/mL
- crystal form change after XRPD assay (FC) ([1]; water, 1 h): weak
- pH ([1]; water, 1 h): 7.6
- crystal form change after XRPD assay (FC) ([1]; water, 4 h): weak
- pH ([1]; water, 4 h): 7.4
- crystal form change after XRPD assay (FC) ([1]; water, 24 h): weak
- pH ([1]; water, 24 h): 7.4
- HPLC purity: Purity after placement ([2]; 25° C./60% RH): 98.62 area %
- Purity after placement/Starting purity ([2]; 25° C./60% RH): 99.9%
- Crystal form change ([2]; 25° C./60% RH): unchanged
- HPLC purity: Purity after placement ([2]; 40° C./75% RH): 98.51 area %
- Purity after placement/Starting purity ([2]; 40° C./75% RH): 99.8%
- Crystal form change ([2]; 40° C./75% RH): unchanged
- change in purity after one week of placement [2, 3]: no significant change
- change in the crystal form after one week of placement [2, 3]: no change
- RVMI, RV/(LV+S) (PAH rats; [4]): 34.6±19%
- RVSP (PAH rats; [4]): 29.8±1.6 mmHg
- WT % of pulmonary arterioles vs PAH model group (PAH rats; [5]): decreased and improved significantly
- tunica media thickness of pulmonary arterioles vs PAH model group (PAH rats; [5]): decreased and improved significantly
- RVMI, RV/(LV+S) (PAH rats; [6]): 40.6±2.7%
- RVSP (PAH rats; [6]): 47.6±1.9 mmHg
- RVMI, RV/(LV+S) (PAH rats; [7]): 38.7±2.1%
- RVSP (PAH rats; [7]): 40.7±1.5 mmHg
- RVMI, RV/(LV+S) (PAH rats; [8]): 42.8±2.1%
- RVSP (PAH rats; [8]): 56.2±0.5 mmHg
